{"source": "paper PMC8891185", "about": "(The Journal of Nutrition, 2021)", "key": {"[1]": {"conditions": "adult men; without AA; consumed in 1 or separate whole-maize porridge meals; cited from earlier work"}, "[2]": {"conditions": "anemic infants; 5 mg/kg of Fe daily for 28 d; cited from earlier work"}, "[3]": {"conditions": "9-mo-old, iron-replete children, cited from earlier work; for iron bioavailability from inhibitory WG cereal: PA:Fe 2.2:1, no added AA"}, "[4]": {"assay": "Fractional iron absorption"}, "[5]": {"conditions": "iron-deficient infants; AA at a molar ratio of 2:1; cited from earlier work"}}}
{"compound": "NCC(=O)[O-].NCC(=O)[O-].[Fe+2]", "note": "[FeBG, ferrous bisglycinate]", "values": [{"measurement": "iron bioavailability, times higher than FeSO4", "setting": "[1]", "result": "4−6 times"}, {"measurement": "hemoglobin change", "setting": "[2]", "result": "significant hemoglobin increases"}, {"measurement": "iron bioavailability from inhibitory WG cereal", "setting": "[3]", "result": 5.2, "unit": "%"}, {"measurement": "iron bioavailability from vegetable puree", "setting": "[3]", "result": 9, "unit": "%"}]}
{"compound": "O=C([O-])/C=C/C(=O)[O-].[Fe+2]", "note": "[Fefum, ferrous fumarate]", "values": [{"measurement": "bioavailability of iron when consumed in WG-oat cereal", "setting": "[4]; WG-oat cereal with AA, nonsignificant difference between FeBG and Fefum", "result": 9.2, "unit": "%"}, {"measurement": "iron bioavailability in the noninhibitory reference meal", "setting": "[4]; refined wheat reference meal with AA", "result": 12.1, "unit": "%"}]}
{"compound": "ferrous sulfate [FeSO4]", "values": [{"measurement": "bioavailability of iron as FeSO4 from refined wheat-based infant cereal, with dephytinization", "setting": "[5]", "result": 8.5, "unit": "%"}, {"measurement": "bioavailability of iron as FeSO4 from refined wheat-based infant cereal, without dephytinization", "setting": "[5]", "result": 8.7, "unit": "%"}, {"measurement": "hemoglobin change", "setting": "[2]", "result": "significant hemoglobin increases"}, {"measurement": "iron bioavailability from inhibitory WG cereal", "setting": "[3]", "result": 3.8, "unit": "%"}, {"measurement": "iron bioavailability from vegetable puree", "setting": "[3]", "result": 9.9, "unit": "%"}]}
